{"source": "patent US5274076A", "about": "“Hydrophilic derivatives, their application to diagnosis and to therapeutics, diagnostic or therapeutic kits and immunological reagents” (Immunotech Partners, priority 1989, dated 1993)", "key": {"[1]": {"system": "human melanoma cells (A375)", "assay": "Radioimmunoscintigraphy and organ radioactivity counting of human melanoma grafted on nude mice, pretargeted with anti-melanoma anti-DTPA-indium dual specificity conjugate", "format": "in vivo", "conditions": "for specificity of tumour binding: A375 tumour in nude mice", "protocol": "Radioimmunoscintigraphy of human melanoma grafted on to nude mice with anti-melanoma anti-DTPA indium dual specificity conjugates and N-α-DTPA-tyrosyl-N-ε-DTPA-lysine labelled with indium 111.\n(§1) 3.10^6 human melanoma cells (A375) are injected subcutaneously into the abdomen of nude mice. 3 to 4 weeks later the mice develop tumours of 0.5 to 2 g. The mice are then injected with 2 to 10 μg of dual specificity conjugate prepared by chemical coupling of the F(ab)'2 fragment of a […] anti-melanoma antibody (mouse monoclonal antibody IgG1, kappa) to the reduced F(ab)'2 fragment of an anti-DTPA-indium antibody (mouse monoclonal antibody IgG1, lambda) using the heterobifunctional reagent EMCS.\n(§2) Twenty four hours later, mice are injected with 10 μCi of the derivative of Example 1 labelled with indium-111. Images are then produced at selected time intervals using a Sopha Medical Gammatome 2 gamma camera equipped with a medium energy high-resolution collimator or the animals are killed and the major organs and the tumour are measured for radioactivity associated with indium-111 using a gamma counter."}, "[2]": {"assay": "Tolerance to probes in animals", "format": "in vivo, BALB/c mice", "conditions": "10 nanomoles, observed 16 days; compounds 1 and 2 complexed with non-radioactive indium", "protocol": "Doses corresponding to 10 nanomoles, i.e. about 10,000 times more than the dose required for radioimmunoscintigraphy, of compounds 1 and 2 previously complexed with non-radioactive indium and compound 3 are administered to BALB/c mice. These mice are then observed for 16 days under normal breeding conditions."}, "[3]": {"system": "human melanoma cells (A375)", "assay": "Comparison of indium-111-labelled probes in the labelling of tumours in mice (tumour/organ contrast)", "format": "in vivo, nude mice", "conditions": "for Contrast cpm/g in the tumour/cpm/g in the organ: Heart / Contrast cpm/g in the tumour/cpm/g in the organ: Kidneys / Contrast cpm/g in the tumour/cpm/g in the organ: Liver / Contrast cpm/g in the tumour/cpm/g in the organ: Lung / Contrast cpm/g in the tumour/cpm/g in the organ: Plasma / Contrast cpm/g in the tumour/cpm/g in the organ: Spleen: 3 hours after injection of the radiolabelled probe", "protocol": "as §1, §2\nComparison between compound 1 labelled with indium-111 and di-(DNP-lys)-DTPA in the labelling of tumours in mice.\nExperiments are carried out as in Example 5 but the mice are given indium-111-labelled di-(DNP-lys)-DTPA (derivative 1 of French Patent Application 86.13146) instead of the derivative 1 described above. Three hours after injection of the probe, the mice are dissected and the gamma radioactivity of the major organs and tumour is counted. It is observed that the tumour accumulates a dose of radioactivity equivalent to that Obtained with the two compounds of Example 1 of the present invention. However, the elimination of the excess radioactivity is substantially more rapid with the compounds of the present invention, as shown by the following table: […]"}, "[4]": {"conditions": "indium-111 labelled, after dual specificity conjugate"}, "[5]": {"conditions": "radioactivity measured after 24 hours"}}, "note": "Residues, ends and D or L forms follow the SMILES beside them. Groups on a side chain read outwards from the residue. *: point of attachment. DTPA = O=C(O)CN(CCN(CC(=O)O)CC(=O)O)CCN(CC(=O)O)CC(=O)*"}
{"compound": "O=C(O)CN(CCN(CC(=O)O)CC(=O)O)CCN(CC(=O)O)CC(=O)NCCCC[C@H](NC(=O)[C@H](Cc1ccc(O)cc1)NC(=O)CN(CCN(CCN(CC(=O)O)CC(=O)O)CC(=O)O)CC(=O)O)C(=O)O", "note": "[Example 1, N-α-DTPA-tyrosyl-N-ε-DTPA-lysine] ({DTPA}-Tyr-Lys(DTPA)-OH)", "values": [{"measurement": "specificity of tumour binding", "setting": "[1]", "result": "specific"}, {"measurement": "tumour accumulation of radioactivity without dual specificity conjugate or with conjugate specific for another tumour antigen", "setting": "[1]; control without or with irrelevant conjugate", "result": "did not accumulate significant amounts of radioactivity"}, {"measurement": "time after injection at which tumours can be observed on gamma camera images", "setting": "[1]; indium-111 labelled, 10 μCi, 24 h after dual specificity conjugate", "result": "Only a few minutes"}, {"measurement": "non-specific accumulation of radioactivity", "setting": "[1]; [4]", "result": "essentially limited to the kidneys"}, {"measurement": "time in which a large majority of the circulating radioactivity is eliminated", "setting": "[1]; [4]", "result": "less than 24 hours"}, {"measurement": "time in which radioactivity bound to the tumour is established", "setting": "[1]; [4]", "result": "within a few hours"}, {"measurement": "time radioactivity bound to the tumour remains stable", "setting": "[1]; [4]", "result": "at least two days"}, {"measurement": "tumour/organ ratio (T/O), all organs except the kidneys", "setting": "[1]; [5]", "result": "> 3"}, {"measurement": "tumour/organ ratio (T/O), kidneys", "setting": "[1]; [5]", "result": 0.7}, {"measurement": "signs of toxicity", "setting": "[2]", "result": "No sign of toxicity"}, {"measurement": "weight gain versus control animals", "setting": "[2]", "result": "not significantly different"}, {"measurement": "Contrast cpm/g in the tumour/cpm/g in the organ: Heart", "setting": "[3]", "result": 14.9}, {"measurement": "Contrast cpm/g in the tumour/cpm/g in the organ: Kidneys", "setting": "[3]", "result": 3.5}, {"measurement": "Contrast cpm/g in the tumour/cpm/g in the organ: Liver", "setting": "[3]", "result": 10.8}, {"measurement": "Contrast cpm/g in the tumour/cpm/g in the organ: Lung", "setting": "[3]", "result": 8.2}, {"measurement": "Contrast cpm/g in the tumour/cpm/g in the organ: Plasma", "setting": "[3]", "result": 1.7}, {"measurement": "Contrast cpm/g in the tumour/cpm/g in the organ: Spleen", "setting": "[3]", "result": 12.7}]}
{"compound": "O=C(O)CN(CCN(CC(=O)O)CC(=O)O)CCN(CC(=O)O)CC(=O)NCC(=O)NCCCC[C@H](NC(=O)CNC(=O)CN(CCN(CCN(CC(=O)O)CC(=O)O)CC(=O)O)CC(=O)O)C(=O)N[C@@H](Cc1ccc(O)cc1)C(=O)O", "note": "[Example 2, N-α-N-ε-di-(DTPA-glycyl)-lysyl-tyrosine] ({DTPA}-Gly-Lys([Gly-DTPA])-Tyr-OH)", "values": [{"measurement": "signs of toxicity", "setting": "[2]", "result": "No sign of toxicity"}, {"measurement": "weight gain versus control animals", "setting": "[2]", "result": "not significantly different"}]}
{"compound": "O=C(CCC(=O)NCC(=O)NCCCC[C@H](NC(=O)CNC(=O)CCC(=O)NCCc1cnc[nH]1)C(=O)N[C@@H](Cc1ccc(O)cc1)C(=O)O)NCCc1cnc[nH]1", "note": "[Example 3, N-α-N-ε-di-(histamine-succinyl-glycyl)-lysyl-tyrosine]", "values": [{"measurement": "signs of toxicity", "setting": "[2]", "result": "No sign of toxicity"}, {"measurement": "weight gain versus control animals", "setting": "[2]", "result": "not significantly different"}]}
{"compound": "DTPA [indium-111-labelled DTPA, reference compound]", "values": [{"measurement": "specificity of tumour binding", "setting": "[1]", "result": "little specific binding is observed"}, {"measurement": "elimination/excretion of radioactivity", "setting": "[1]; mouse, in vivo", "result": "excreted very rapidly"}]}
{"compound": "di-(DNP-lys)-DTPA [derivative of the prior art]", "values": [{"measurement": "Contrast cpm/g in the tumour/cpm/g in the organ: Heart", "setting": "[3]", "result": 2.1}, {"measurement": "Contrast cpm/g in the tumour/cpm/g in the organ: Kidneys", "setting": "[3]", "result": 1.0}, {"measurement": "Contrast cpm/g in the tumour/cpm/g in the organ: Liver", "setting": "[3]", "result": 1.3}, {"measurement": "Contrast cpm/g in the tumour/cpm/g in the organ: Lung", "setting": "[3]", "result": 0.9}, {"measurement": "Contrast cpm/g in the tumour/cpm/g in the organ: Plasma", "setting": "[3]", "result": 0.2}, {"measurement": "Contrast cpm/g in the tumour/cpm/g in the organ: Spleen", "setting": "[3]", "result": 1.8}, {"measurement": "dose of radioactivity accumulated by the tumour compared with Example 1", "setting": "[3]; 3 hours after injection, indium-111 labelled", "result": "equivalent"}]}
